Test results: US10730877B2, “4-Azaindole compounds” (BRISTOL-MYERS SQUIBB COMPANY, priority 2017, dated 2020)
Where two headings read alike, the source gives them in different places.

Legend:
[1] = biological target: human TLR8 (Homo sapiens (Human), UniProt Q9NR97); assay: TLR8 inhibition reporter assay (HEK-Blue cells, SEAP reporter, R848 stimulation); details: read-out: TLR8 IC50, R848 15.9 μM;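 note: SEAP under an IFN-β minimal promoter carrying five NF-κB and AP-1 sites, 22 h at 37 °C, doses 0.05 nM–50 µM, inhibition scaled between agonist-plus-DMSO and reference-inhibitor wells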
human TLR8, sequence (Q9NR97 27-1041): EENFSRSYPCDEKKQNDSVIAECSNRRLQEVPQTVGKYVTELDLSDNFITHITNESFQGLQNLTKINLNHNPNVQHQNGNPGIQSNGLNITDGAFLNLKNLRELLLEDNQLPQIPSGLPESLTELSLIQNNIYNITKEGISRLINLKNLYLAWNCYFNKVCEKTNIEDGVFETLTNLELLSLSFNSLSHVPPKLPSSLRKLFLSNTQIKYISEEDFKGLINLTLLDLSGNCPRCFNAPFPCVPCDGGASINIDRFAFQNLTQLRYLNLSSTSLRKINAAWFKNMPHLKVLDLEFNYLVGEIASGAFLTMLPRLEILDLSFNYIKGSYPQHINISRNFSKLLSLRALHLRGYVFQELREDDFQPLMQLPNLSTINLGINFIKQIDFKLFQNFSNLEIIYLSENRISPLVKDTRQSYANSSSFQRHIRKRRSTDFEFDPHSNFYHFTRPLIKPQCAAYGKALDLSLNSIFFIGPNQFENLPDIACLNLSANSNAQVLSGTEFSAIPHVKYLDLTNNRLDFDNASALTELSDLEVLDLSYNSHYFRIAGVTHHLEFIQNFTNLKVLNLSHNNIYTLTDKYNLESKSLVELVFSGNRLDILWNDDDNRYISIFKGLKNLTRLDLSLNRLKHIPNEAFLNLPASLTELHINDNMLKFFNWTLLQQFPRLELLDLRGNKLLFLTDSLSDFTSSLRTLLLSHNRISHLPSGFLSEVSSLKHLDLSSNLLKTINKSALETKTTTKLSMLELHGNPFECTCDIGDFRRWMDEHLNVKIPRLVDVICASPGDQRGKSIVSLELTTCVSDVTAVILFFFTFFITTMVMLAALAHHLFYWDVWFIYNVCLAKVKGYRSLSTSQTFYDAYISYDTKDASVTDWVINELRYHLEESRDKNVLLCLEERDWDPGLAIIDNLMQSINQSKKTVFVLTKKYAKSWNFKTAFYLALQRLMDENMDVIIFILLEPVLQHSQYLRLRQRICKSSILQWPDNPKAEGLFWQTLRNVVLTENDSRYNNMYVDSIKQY
Protocol: (§1) HEK-Blue™-cells (Invivogen) overexpressing human TLR7, TLR8 or TLR9 receptors were used for screening inhibitors of these receptors using an inducible SEAP (secreted embryonic alkaline phosphatase) reporter gene under the control of the IFN-β minimal promoter fused to five NF-κB and AP-1-binding sites. Briefly, cells are seeded into Greiner 384 well plates (15000 cells per well for TLR7, 20,000 for TLR8 and 25,000 for TLR9) and then treated with test compounds in DMSO to yield a final dose response concentration range of 0.05 nM-50 μM. After a 30 minute compound pre-treatment at room temperature, the cells are then stimulated with a TLR7 ligand (gardiquimod at a final concentration of 7.5 μM), TLR8 ligand (R848 at a final concentration of 15.9 μM) or TLR9 ligand (ODN2006 at a final concentration of 5 nM) to activate NF-κB and AP-1 which induce the production of SEAP. After a 22 hour incubation at 37° C., 5% CO2, SEAP levels are determined with the addition of HEK-Blue™ Detection reagent (Invivogen), a cell culture medium that allows for detection of SEAP, according to manufacturer's specifications.

[2] = biological target: human TLR7 (Homo sapiens (Human), UniProt Q9NYK1); assay: TLR7 inhibition reporter assay (HEK-Blue cells, SEAP reporter, gardiquimod stimulation); type: cell-based; details: gardiquimod 7.5 μM
human TLR7, sequence (Q9NYK1 27-1049): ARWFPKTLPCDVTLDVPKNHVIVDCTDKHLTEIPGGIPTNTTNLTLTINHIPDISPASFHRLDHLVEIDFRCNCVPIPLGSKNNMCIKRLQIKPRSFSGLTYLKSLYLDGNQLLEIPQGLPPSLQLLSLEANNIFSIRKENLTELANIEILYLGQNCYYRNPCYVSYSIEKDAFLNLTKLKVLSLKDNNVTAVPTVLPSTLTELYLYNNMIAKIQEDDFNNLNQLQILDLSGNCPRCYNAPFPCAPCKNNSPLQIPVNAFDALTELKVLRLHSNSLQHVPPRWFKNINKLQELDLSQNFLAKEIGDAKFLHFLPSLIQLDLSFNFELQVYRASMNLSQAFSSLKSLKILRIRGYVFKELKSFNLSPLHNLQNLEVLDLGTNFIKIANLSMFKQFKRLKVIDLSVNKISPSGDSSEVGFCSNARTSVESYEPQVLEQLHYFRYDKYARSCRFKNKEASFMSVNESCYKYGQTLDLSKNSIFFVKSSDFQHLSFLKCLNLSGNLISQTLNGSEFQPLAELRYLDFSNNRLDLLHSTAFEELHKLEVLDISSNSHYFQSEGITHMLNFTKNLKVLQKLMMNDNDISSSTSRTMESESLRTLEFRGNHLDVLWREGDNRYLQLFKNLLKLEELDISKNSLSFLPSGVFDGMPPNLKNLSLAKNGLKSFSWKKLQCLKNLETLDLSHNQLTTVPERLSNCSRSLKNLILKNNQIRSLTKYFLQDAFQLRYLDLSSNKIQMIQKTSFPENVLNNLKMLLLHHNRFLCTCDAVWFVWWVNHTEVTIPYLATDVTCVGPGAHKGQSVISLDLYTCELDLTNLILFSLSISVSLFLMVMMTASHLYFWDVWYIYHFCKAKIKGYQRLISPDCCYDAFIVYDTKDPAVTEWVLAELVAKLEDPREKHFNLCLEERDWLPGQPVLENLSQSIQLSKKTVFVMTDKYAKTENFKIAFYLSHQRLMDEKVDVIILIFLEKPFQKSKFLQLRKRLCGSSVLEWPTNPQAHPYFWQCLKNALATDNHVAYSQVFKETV
Protocol: as §1

[3] = biological target: human TLR9 (Homo sapiens (Human), UniProt Q9NR96); assay: TLR9 inhibition reporter assay (HEK-Blue cells, SEAP reporter, ODN2006 stimulation);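 note: SEAP driven by IFN-β minimal promoter with five NF-κB and AP-1 sites, compounds 0.05 nM–50 µM in DMSO, 22 h, inhibition scaled between agonist plus DMSO and reference inhibitor wells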
human TLR9, sequence (Q9NR96 26-1032): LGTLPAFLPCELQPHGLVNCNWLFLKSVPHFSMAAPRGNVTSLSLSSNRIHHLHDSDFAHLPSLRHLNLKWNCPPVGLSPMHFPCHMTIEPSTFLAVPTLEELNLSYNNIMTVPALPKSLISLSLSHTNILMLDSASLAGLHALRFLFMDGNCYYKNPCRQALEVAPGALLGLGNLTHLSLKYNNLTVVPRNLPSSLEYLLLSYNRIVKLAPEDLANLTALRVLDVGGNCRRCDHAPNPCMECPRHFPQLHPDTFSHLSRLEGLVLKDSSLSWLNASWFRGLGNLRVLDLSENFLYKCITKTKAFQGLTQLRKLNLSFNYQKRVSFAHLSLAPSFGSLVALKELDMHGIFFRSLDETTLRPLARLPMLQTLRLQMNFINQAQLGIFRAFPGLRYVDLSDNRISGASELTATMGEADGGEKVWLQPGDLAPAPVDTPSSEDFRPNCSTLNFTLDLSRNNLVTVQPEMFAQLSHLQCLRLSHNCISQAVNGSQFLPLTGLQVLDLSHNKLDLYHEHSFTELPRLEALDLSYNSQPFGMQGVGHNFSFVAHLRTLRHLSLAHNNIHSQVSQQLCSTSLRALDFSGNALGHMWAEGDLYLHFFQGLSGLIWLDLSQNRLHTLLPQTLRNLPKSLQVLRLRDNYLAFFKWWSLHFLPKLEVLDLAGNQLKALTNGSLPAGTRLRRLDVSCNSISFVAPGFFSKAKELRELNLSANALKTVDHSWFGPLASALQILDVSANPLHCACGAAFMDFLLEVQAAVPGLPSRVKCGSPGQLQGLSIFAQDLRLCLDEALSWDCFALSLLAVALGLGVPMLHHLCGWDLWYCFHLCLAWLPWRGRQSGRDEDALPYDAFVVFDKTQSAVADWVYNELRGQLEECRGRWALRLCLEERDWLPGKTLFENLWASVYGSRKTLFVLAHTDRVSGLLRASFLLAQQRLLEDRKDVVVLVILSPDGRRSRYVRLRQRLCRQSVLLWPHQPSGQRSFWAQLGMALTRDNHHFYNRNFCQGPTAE
Protocol: as §1

[4] = HEK-Blue cells overexpressing human TLR8, SEAP reporter
[5] = HEK-Blue cells overexpressing human TLR7, SEAP reporter
[6] = read-out: TLR9 IC50, HEK-Blue cells overexpressing human TLR9, SEAP reporter, ODN2006 5 nM
[7] = read-out: TLR9 IC50, HEK-Blue cells, ODN2006 5 nM

Compound	IC50 [1, 4] [nM]	IC50 [2, 5] [nM]	IC50 [3, 6] [nM]	IC50 [3] [nM]	IC50 ([1]; HEK-Blue cells) [nM]	IC50 ([2]; HEK-Blue cells) [nM]	IC50 [3, 7] [nM]
Cc1c(-c2[nH]c3ccc(N4CCC(N(C)Cc5ncccn5)CC4)nc3c2C(C)C)cn2cnnc2c1C [Example 78]	10	3.7	3170				
CC(C)c1c(-c2cn(CCS(C)(=O)=O)c3ncccc23)[nH]c2ccc(C3CCC(NC4CCOCC4)CC3)nc12 (centres unmarked) [Example 271]	40	120	228				
CC(C)c1c(-c2cn(CC#N)c3ncccc23)[nH]c2ccc(C3CCC(NC4CCOCC4)CC3)nc12 (centres unmarked) [Example 274]	3.7	8.5	474				
CCN(CCS(C)(=O)=O)C1CCC(c2ccc3[nH]c(-c4cn5ncnc5c(C)c4C)c(C(C)C)c3n2)CC1 (centres unmarked) [Example 460]	0.79	0.88	2060				
Cc1cc(-c2[nH]c3ccc(C4CCN(CC(N)=O)CC4)nc3c2C(C)C)cn2ncnc12 [Example 559]	4.6	0.72	4920				
CCCN(CCC)C1CCC(Oc2ccc3[nH]c(-c4cc(OC)c5ncnn5c4)c(C(C)C)c3n2)CC1 (centres unmarked) [Example 605, 4-((3-isopropyl-2-(8-methoxy-[1,2,4]triazolo[1,5-a]pyridin-6-yl)-1H-pyrrolo[3,2-b]pyridin-5-yl)oxy)-N,N-dipropylcyclohexan-1-amine]		13		4240			
COc1cc(-c2[nH]c3ccc(CCC4CN(Cc5c[nH]nn5)C4)nc3c2C(C)C)cn2ncnc12 [Example 688]	23	8.4	177				
Cc1c(-c2[nH]c3ccc(N4[C@@H]5CC[C@H]4CN(CCC(N)=O)C5)nc3c2C(C)C)cn2ncnc2c1C [Example 749]	2.6	2.9	14900				
Cc1c(-c2[nH]c3ccc(N4C[C@H]5CCC[C@@H](C4)N5C(=O)CN(C)C)nc3c2C(C)C)cn2ncnc2c1C [Example 750]	3.7	1.2	6140				
Cc1c(-c2[nH]c3ccc(N4C[C@H]5CCC[C@@H](C4)N5CCS(C)(=O)=O)nc3c2C(C)C)cn2ncnc2c1C [Example 751]	7.3	13	26000				
Cc1c(-c2[nH]c3ccc(N4C[C@H]5C[C@@H]4CN5CC(N)=O)nc3c2C(C)C)cn2ncnc2c1C [Example 762]	8.6	3.8	18300				
Cc1c(-c2[nH]c3ccc(N4C[C@H]5C[C@@H]4CN5CCC(N)=O)nc3c2C(C)C)cn2ncnc2c1C [Example 763]	2.6	3.8	4580				
Cc1c(-c2[nH]c3ccc(N4C[C@H]5C[C@@H]4CN5CCS(C)(=O)=O)nc3c2C(C)C)cn2ncnc2c1C [Example 764]	2.8	1.9	14400				
Cc1c(-c2[nH]c3ccc(N4C[C@H]5C[C@@H]4CN5CCCS(C)(=O)=O)nc3c2C(C)C)cn2ncnc2c1C [Example 765]	3.5	5.6	10300				
Cc1c(-c2[nH]c3ccc(N4C[C@H]5C[C@@H]4CN5CC#N)nc3c2C(C)C)cn2ncnc2c1C [Example 766]	1.2	0.86	3510				
Cc1c(-c2[nH]c3ccc(N4C[C@H]5C[C@@H]4CN5CCC(=O)N(C)C)nc3c2C(C)C)cn2ncnc2c1C [Example 767]	2.9	5.4	8300				
Cc1c(-c2[nH]c3ccc(N4C[C@H]5C[C@@H]4CN5C4COC4)nc3c2C(C)C)cn2ncnc2c1C [Example 768]	9.6	6.4	21000				
Cc1c(-c2[nH]c3ccc(N4C[C@H]5C[C@@H]4CN5C4CCS(=O)(=O)CC4)nc3c2C(C)C)cn2ncnc2c1C [Example 770]	24	11	18200				
Cc1c(-c2[nH]c3ccc(N4C[C@H]5C[C@@H]4CN5C(=O)CCN(C)C)nc3c2C(C)C)cn2ncnc2c1C [Example 773]	4.6	3	2710				
Cc1c(-c2[nH]c3ccc(N4C[C@@H]5C[C@H]4CN5CC(N)=O)nc3c2C(C)C)cn2ncnc2c1C [Example 774]	5.7	3.7	18600				
Cc1c(-c2[nH]c3ccc(N4C[C@@H]5C[C@H]4CN5CCC(N)=O)nc3c2C(C)C)cn2ncnc2c1C [Example 775]	4.4	3.8	8450				
Cc1c(-c2[nH]c3ccc(N4C[C@@H]5C[C@H]4CN5CCC(=O)N(C)C)nc3c2C(C)C)cn2ncnc2c1C [Example 776]	5.3	6	13100				
Cc1c(-c2[nH]c3ccc(N4C[C@@H]5C[C@H]4CN5CCS(C)(=O)=O)nc3c2C(C)C)cn2ncnc2c1C [Example 777]	7.4	9.2	14800				
Cc1c(-c2[nH]c3ccc(N4C[C@@H]5C[C@H]4CN5CCCS(C)(=O)=O)nc3c2C(C)C)cn2ncnc2c1C [Example 778]	2.3	2.7	7910				
Cc1c(-c2[nH]c3ccc(N4C[C@@H]5C[C@H]4CN5C4COC4)nc3c2C(C)C)cn2ncnc2c1C [Example 779]	11	7.3	34500				

The remaining lines, values ahead:

IC50 [1, 4] [nM]	IC50 [2, 5] [nM]	IC50 [3, 6] [nM]	IC50 [3] [nM]	IC50 ([1]; HEK-Blue cells) [nM]	IC50 ([2]; HEK-Blue cells) [nM]	IC50 [3, 7] [nM]	Compound
5.4	1.9	5220					Cc1c(-c2[nH]c3ccc(N4C[C@@H]5C[C@H]4CN5C4CCOCC4)nc3c2C(C)C)cn2ncnc2c1C [Example 780]
18	11	14400					Cc1c(-c2[nH]c3ccc(N4C[C@@H]5C[C@H]4CN5C4CCS(=O)(=O)CC4)nc3c2C(C)C)cn2ncnc2c1C [Example 781]
3.9	1.8	8380					Cc1c(-c2[nH]c3ccc(N4C[C@@H]5C[C@H]4CN5C(C)C)nc3c2C(C)C)cn2ncnc2c1C [Example 783]
9.4	2.9	4530					Cc1c(-c2[nH]c3ccc(N4C[C@@H]5C[C@H]4CN5C(=O)CN(C)C)nc3c2C(C)C)cn2ncnc2c1C [Example 784]
13	8	4680					Cc1c(-c2[nH]c3ccc(N4C[C@@H]5C[C@H]4CN5C(=O)CCN(C)C)nc3c2C(C)C)cn2ncnc2c1C [Example 785]
12	7.7	14700					Cc1c(-c2[nH]c3ccc(N4C[C@H]5C[C@@H]4CN5C(C)C)nc3c2C(C)C)cn2ncnc2c1C [Example 786]
4.9	9.4	12300					Cc1c(-c2[nH]c3ccc(N4C[C@@H]5C[C@H]4CN5Cc4cn(C)nn4)nc3c2C(C)C)cn2ncnc2c1C [Example 787]
				1.2	0.55	22600	Cc1c(-c2[nH]c3ccc(N4C[C@@H](C)N(CCCS(C)(=O)=O)C[C@@H]4C)nc3c2C(C)C)cn2ncnc2c1C [Example 846]
				1.6	0.53	8120	Cc1c(-c2[nH]c3ccc(N4CCN(C(=O)CN(C)C)[C@H](C)C4)nc3c2C(C)C)cn2ncnc2c1C [Example 849]
				1.9	0.91	3650	Cc1c(-c2[nH]c3ccc(C4CC5(C4)CN(C)C5)nc3c2C(C)C)cn2ncnc2c1C [Example 1022]
				3.6	10	6940	Cc1c(-c2[nH]c3ccc(C4CC5(C4)CN(C(C)C)C5)nc3c2C(C)C)cn2ncnc2c1C [Example 1023]
